Here are results for 21 compounds from patent US4250097A, “Compositions for and a method of preventing diabetic complications” (Syntex (U.S.A.) Inc., priority 1978, dated 1981).

Assay [1] deals with T1, Aldose reductase (Oryctolagus cuniculus, UniProt P15122).
T1 construct: Aldose reductase is isolated by homogenizing the lens in 3 volumes of water; from tissue; host or cells: lens of mature New Zealand rabbits
As to the kind of experiment: Aldose reductase inhibition, in vitro (loss of absorbance at 340 millimicrons, glyceraldehyde substrate, NADPH). The format is biochemical, New Zealand rabbits (lens). The conditions noted are these: pH 6.0, 37° C; for inhibition at 100 µM: 1 × 10^-4 molar concentration of xanthone compound; for inhibition at 10 µM: 1 × 10^-5 molar concentration of xanthone compound; for inhibition at 1 µM: 1 × 10^-6 molar concentration of xanthone compound. The protocol:
In brief, a solution of the enzyme is added to an appropriately buffered solution containing glyceraldehyde. The loss of ultra violet absorbance at 340 millimicrons is indicative of the rate of reaction of the aldehyde with the enzyme as previously reported by Hayman and Kinoshita, (J. Biol. Chem: 240, 877, (1965)).
Fifty lenses are obtained from mature, New Zealand, rabbits and are immediately frozen on dry ice. Aldose reductase is isolated by homogenizing the lens in 3 volumes of water for 30 seconds in a Waring blender followed by centrifugation at 10,000 xg for 15 minutes to remove insoluble material. Saturated ammonium sulfate is added to the supernatant fluid to 40% saturation. The suspension is centrifuged after 15 minutes, and the supernatant liquid recovered. Additional protein is removed by increasing the ammonium sulfate concentration to 50%, and centrifuging the mixture. Aldose reductase is precipitated from the 50% saturated solution by the addition of powdered ammonium sulfate to 75% saturation and is recovered by centrifugation. The precipitated enzyme is assayed by following the ultraviolet absorbance at 340 millimicrons after dissolving the enzyme in 0.05 M sodium chloride. The enzyme (0.50 ml) is added to a quartz cuvette containing phosphate buffer (0.067 M, pH 6.0), NADPH (2×10^-5 M), and water to a final volume of 3 ml and the cuvette inserted in a conventional ultra-violet spectrometer. The reaction is started by the addition of substrate (glyceraldehyde) to the contents of the cuvette and is followed by the determination of loss of absorbance at 340 millimicrons for 2 minutes at 37° C. The reaction rate observed is usually linear for at least 5 minutes.
All results are shown in Tables I, II, and III as % inhibition, i.e. based on a non-inhibited control sample, no inhibition, 0%.

In assay [2] the test system is lens aldose reductase. Particulars: in vitro; cited from earlier work.

As to `CCCCCCCCOc1cc([S+](C)[O-])cc2c(=O)c3cc(C(=O)O)ccc3oc12` (stereo not drawn) [CH3 1 n-C8 H11 O], in assay [1], the inhibition (in general, the drop in the measured response relative to a control, in per cent) at 100 µM was found to be 96%; 10 µM produced 83% inhibition; the inhibition at 1 µM was 42%.
In assay [1], `O=C(O)c1ccc2oc3ccc(S(=O)(=O)N(CCO)CCO)cc3c(=O)c2c1` [(HOCH2 CH2)2 N 2 H] registered an inhibition at 10 µM of 67%.
In assay [1], `CSc1cc(OC(C)C)cc2c(=O)c3cc(C(=O)O)ccc3oc12` yielded an inhibition at 100 µM of 85%, an inhibition at 10 µM of 60% and an inhibition at 1 µM of 30%.
The like results for `COc1ccc2oc3ccc(C(=O)O)cc3c(=O)c2c1` [CH3 O H] were, in that order, 81%, 39% and 17%.
On the same counts, the results for `CC(C)CCOc1cc([S+](C)[O-])cc2c(=O)c3cc(C(=O)O)ccc3oc12` (stereo not drawn) are 90%, 65% and 25%.
For `O=C(O)c1ccc2oc3ccc(S(=O)(=O)CCO)cc3c(=O)c2c1` [HO(CH2)2 2 H, 7-(2-hydroxyethylsulfonyl)xanthone-2-carboxylic acid], in assay [1], at 10 µM the inhibition was 83%.
As for `CC(C)N(C)S(=O)(=O)c1ccc2oc3ccc(C(=O)O)cc3c(=O)c2c1`, in assay [1], the inhibition at 100 µM was 89%, testing at 10 µM gave an inhibition of 69% and testing at 1 µM gave an inhibition of 17%.
On to `CC1OC(Oc2c(-c3ccc(O)c(O)c3)oc3cc(O)cc(O)c3c2=O)C(O)C(O)C1O` (stereo not drawn) [quercetrin], for which, in assay [2], the “inhibition of lens aldose reductase (potency in words)” value (“inhibition of lens aldose reductase” below) was “among the most potent”.
On to `O=C(O)c1ccc2oc3ccc(S(=O)(=O)O)cc3c(=O)c2c1` [H 3 H], for which, in assay [1], the inhibition at 100 µM was found to be 70% and at 10 µM the inhibition was 43%.
Consider `CCCCCOc1cc([S+](C)[O-])cc2c(=O)c3cc(C(=O)O)ccc3oc12` (stereo not drawn) [CH3 1 n-C5 H11 O], for which, in assay [1], the inhibition at 100 µM turned out to be 95%, 10 µM produced 70% inhibition and the inhibition at 1 µM was 35%.
The like results for `CC(C)Oc1ccc2oc3ccc(C(=O)O)cc3c(=O)c2c1` were, in that order, 89%, 73% and 3%.
The like results for `CSc1cc(OC(C)C)c2oc3ccc(C(=O)O)cc3c(=O)c2c1` were, in that order, 85%, 67% and 17%.
With `O=C(O)c1ccc2oc3ccc(OCC(O)CO)cc3c(=O)c2c1` (stereo not drawn), in assay [1], the inhibition at 10 µM came out at 81% and the inhibition at 1 µM came to 54%.
In assay [1], `CCC(=O)c1ccc2oc3ccc(C(=O)O)cc3c(=O)c2c1` [CH3 CH2 H] returned an inhibition at 10 µM of 54% and an inhibition at 1 µM of 50%. The % Inhibition (as a rule, the change of the read-out against control, counted positive when it falls) in assay [1] (molar concentration printed (Table II)) is listed as 63%.
On to `CC1OC(Oc2c(-c3cc(O)c(O)c(O)c3)oc3cc(O)cc(O)c3c2=O)C(O)C(O)C1O` (stereo not drawn) [myrecetrin], for which the “inhibition of lens aldose reductase” value in assay [2] is listed as “among the most potent”.
For the compound `CCCCN(C)S(=O)(=O)c1ccc2oc3ccc(C(=O)O)cc3c(=O)c2c1`, in assay [1], the inhibition at 100 µM was 95%, the inhibition at 10 µM is 75% and 1 µM produced 25% inhibition.
The like results for `COc1cccc2c(=O)c3cc(C(=O)O)ccc3oc12` [H CH3 O] were, in that order, 78%, 50% and 28%.
On the same counts, the results for `CSc1cc(C(C)C)c2oc3ccc(C(=O)O)cc3c(=O)c2c1` are 97%, 67% and 17%.
In assay [1], `C[S+]([O-])c1cc(S(C)(=O)=O)cc2c(=O)c3cc(C(=O)O)ccc3oc12` (stereo not drawn) [CH3 2 CH3 SO] showed an inhibition at 10 µM of 50%.
With `O=c1c(O)c(-c2ccc(O)c(O)c2)oc2cc(O)cc(O)c12` [quercetin], in assay [2], the “inhibition of lens aldose reductase” value is “among the most potent”.
In assay [1], `COc1cc(OC)c2oc3ccc(C(=O)O)cc3c(=O)c2c1` [CH3 O CH3 O] had an inhibition at 10 µM of 39% and an inhibition at 1 µM of 25%.
